Measured values from patent US20120083501A1, “COMPOUNDS FOR TREATING NEURODEGENERATIVE DISEASES” (priority 2010, published 2012).

Target: T1, BACE1 (Homo sapiens, UniProt P56817)
T1 construct: endogenous in cells; host or cells: HEK-293 cells stably transfected with wild type APP695
Experiment: Cellular BACE1 Inhibition Assay (in vitro cellular Amyloidβ 1-40 production, HTRF immunoassay)
Format: cell-based
Conditions: inhibition of Amyloidβ 1-40 production; HEK-293 cells stably transfected with wild type APP695; 48 hours incubation; single assay or mean of multiple assays
Method: The BACE inhibition properties of the compounds of the invention may be determined by the following in vitro cellular Amyloidβ 1-40 production assay.
Inhibition of Amyloidβ 1-40 production was determined by incubating cells with compound for 48 hours and quantifying the level of Amyloidβ 1-40 using an homogeneous time-resolved fluorescence (“HTRF”) immunoassay.
Materials and Methods: HEK-293 cells stably transfected with a DNA construct containing the coding sequence for the wild type APP695 sequence were grown in Dulbecco's Modified Eagle Medium (“DMEM”) supplemented with 10% fetal bovine serum, penicillin/streptomycin and 150 μg/mL G418. Cells were plated in 96-well plates at 35,000 cells/well and allowed to attach for 8-12 hours. Media was changed to DMEM supplemented with 10% fetal bovine serum, penicillin/streptomycin 15 minutes prior to compound addition. Diluted compounds were then added at a final concentration of 0.5% DMSO. After 48 hours, 4 μL of media from each well was added to a corresponding well of a 384 well plate (Perkin Elmer Cat#6008280) containing the HTRF reagents. HTRF reagents were obtained from the CisBio Amyloidβ 1-40 peptide assay kit (Cat# 62B40PEC) and were prepared as follows anti-peptide β (1-40)-Cryptate and anti-peptide β (1-40)-XL655 were stored in 2 plate aliquots at −80° C. Diluent and Reconstitution buffer were stored at 4° C. Aliquots of the two antibodies were diluted 1:100 with Reconstitution buffer, and this mixture was diluted 1:2 with Diluent. 12 μL of the reagent mixture was added to the required wells of the 384 well assay plate. The assay plate was incubated at 4° C. for 17 hours and then analyzed for fluorescence at 665 and 620 nm. The reported IC50 below may be from a single assay or the mean of multiple assays.

T1 sequence (P56817 46-501): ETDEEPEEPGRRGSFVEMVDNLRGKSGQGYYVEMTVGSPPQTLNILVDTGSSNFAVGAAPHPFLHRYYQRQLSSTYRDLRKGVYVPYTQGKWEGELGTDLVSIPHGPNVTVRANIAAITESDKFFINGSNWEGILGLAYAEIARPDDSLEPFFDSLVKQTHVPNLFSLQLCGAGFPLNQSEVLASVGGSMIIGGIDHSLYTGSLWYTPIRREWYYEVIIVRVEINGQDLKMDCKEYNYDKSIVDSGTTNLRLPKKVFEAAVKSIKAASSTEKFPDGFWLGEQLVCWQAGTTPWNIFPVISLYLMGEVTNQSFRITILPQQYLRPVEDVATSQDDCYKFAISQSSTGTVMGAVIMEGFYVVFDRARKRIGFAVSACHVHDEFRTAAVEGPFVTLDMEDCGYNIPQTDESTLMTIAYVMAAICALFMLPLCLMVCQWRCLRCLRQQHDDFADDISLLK

| SMILES | IC50 [nM] |
| --- | --- |
| CN1C(=O)C2(N=C1N)c1cc(-c3cccc(OC(F)F)c3)ccc1OC1CC(F)(F)CCC12 (stereo not drawn) [Example 36, 2-amino-7′-(3-(difluoromethoxy)phenyl)-3′,3′-difluoro-1-methyl-1′,2′,3′,4′,4a′,9a′-hexahydrospiro[imidazole-4,9′-xanthen]-5(1H)-one] | 221 |
| CN1C(=O)C2(N=C1N)c1cc(-c3cccnc3F)ccc1OC1CCC(F)(F)CC12 (stereo not drawn) [Example 41, 2-amino-2′,2′-difluoro-7′-(2-fluoropyridin-3-yl)-1-methyl-1′,2′,3′,4′,4a′,9a′-hexahydrospiro[imidazole-4,9′-xanthen]-5(1H)-one] | 41.4 |
| CN1C(=O)C2(N=C1N)c1cc(-c3cncc(Cl)c3)ccc1C[C@H]1CCOC[C@@H]12 (stereo partly drawn) [Example 69, (4aS,10aS)-2′-amino-8-(5-chloropyridin-3-yl)-1′-methyl-1,3,4,4a,5,10a-hexahydrospiro[benzo[g]isochromene-10,4′-imidazol]-5′(1′H)-one] | 0.8 |
| CN1C(=O)[C@]2(N=C1N)c1cc(-c3cncc(Cl)c3)ccc1O[C@H]1CCCO[C@@H]12 [Example 78, (4S,4a′S,10a′R)-2-amino-8′-(5-chloropyridin-3-yl)-1-methyl-3′,4′,4a′,10a′-tetrahydro-2′H-spiro[imidazole-4,10′-pyrano[3,2-b]chromen]-5(1H)-one] | 1.5 |
| CN1C(=O)[C@]2(N=C1N)c1cc(-c3cncc(C#N)c3)ccc1O[C@H]1CCCO[C@@H]12 [Example 79, 5-((4S,4a′S,10a′R)-2-amino-1-methyl-5-oxo-1,3′,4′,4a′,5,10a′-hexahydro-2′H-spiro[imidazole-4,10′-pyrano[3,2-b]chromen]-8′-yl)nicotinonitrile] | 4.3 |
| CN1C(=O)[C@]2(N=C1N)c1cc(-c3cncc(C#N)c3)ccc1O[C@H]1CCCO[C@@]12C [Example 86, 5-((4S,4a′S,10a′R)-2-amino-1,10a′-dimethyl-5-oxo-1,3′,4′,4a′,5,10a′-hexahydro-2′H-spiro[imidazole-4,10′-pyrano[3,2-b]chromen]-8′-yl)nicotinonitrile] | 4.6 |
| CN1C(=O)C2(N=C1N)c1cc(-c3cccnc3F)ccc1O[C@H]1CC(O)CC[C@@H]12 (stereo partly drawn) [Example 96, (4a′S,9a′R)-2-amino-7′-(2-fluoropyridin-3-yl)-3′-hydroxy-1-methyl-1′,2′,3′,4′,4a′,9a′-hexahydrospiro[imidazole-4,9′-xanthen]-5(1H)-one] | 3.9 |
| CN1C(=O)[C@]2(N=C1N)c1cc(-c3cccnc3F)ccc1O[C@H]1CCOCC12F (stereo partly drawn) [Example 99, (4R,4a′S)-2-amino-10a′-fluoro-8′-(2-fluoropyridin-3-yl)-1-methyl-3′,4′,4a′,10a′-tetrahydro-1′H-spiro[imidazole-4,10′-pyrano[4,3-b]chromen]-5(1H)-one] | 241 |
| COc1ccc2c(c1)C1(N=C(N)N(C)C1=O)[C@H]1COCC[C@@H]1C2 (stereo partly drawn) [Example 107, (4aS,10aS)-2′-amino-8-methoxy-1′-methyl-1,3,4,4a,5,10a-hexahydrospiro[benzo[g]isochromene-10,4′-imidazol]-5′(1′H)-one] | 801 |
